ChEMBL document CHEMBL1201862, “PubChem BioAssay data set” (2004)
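Five compound concentrations were applied to cells in 96-well plates for 48 hours; endpoints were derived by simple linear interpolation of the resulting dose-response curve. GI50 marks 50% less growth.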 Active and inactive are the calls of the source. Cut-off read from the data, not from the text of the source: active = GI50 up to about 1.1 µM and inactive = higher.

Legend:
Test in all cases: NCI tumour cell line growth inhibition, 48 h
[1] = test system: 786-0
[2] = test system: A498
[3] = test system: A549
[4] = test system: ACHN
[5] = test system: BT-549
[6] = test system: CAKI-1
[7] = test system: COLO 205
[8] = test system: DU-145
[9] = test system: EKVX
[10] = test system: HCC 2998
[11] = test system: HCT-116
[12] = test system: HCT-15
[13] = test system: HOP-62
[14] = test system: HT-29
[15] = test system: Hs-578T
[16] = test system: IGROV-1
[17] = test system: K562
[18] = test system: KM12
[19] = test system: LOX IMVI
[20] = test system: M14
[21] = test system: MCF7
[22] = test system: MDA-MB-231
[23] = test system: MDA-MB-435
[24] = test system: MDA-N
[25] = test system: MOLT-4
[26] = test system: Malme-3M
[27] = test system: NCI-H226
[28] = test system: NCI-H23
[29] = test system: NCI-H460
[30] = test system: NCI-H522
[31] = test system: NCI/ADR-RES
[32] = test system: OVCAR-3
[33] = test system: OVCAR-4
[34] = test system: OVCAR-5
[35] = test system: OVCAR-8
[36] = test system: PC-3
[37] = test system: RPMI-8226
[38] = test system: RXF 393
[39] = test system: SF-268
[40] = test system: SF-295
[41] = test system: SF-539
[42] = test system: SK-MEL-28
[43] = test system: SK-MEL-2
[44] = test system: SK-MEL-5
[45] = test system: SK-OV-3
[46] = test system: SN12C
[47] = test system: SNB-19
[48] = test system: SNB-75
[49] = test system: SR
[50] = test system: T47D
[51] = test system: TK-10
[52] = test system: U-251
[53] = test system: UACC-257
[54] = test system: UACC-62
[55] = test system: UO-31
[56] = test system: CCRF-CEM
[57] = test system: HL-60
[58] = test system: SW-620

Measured: GI50

O=C([C@H](O)[C@@H](O)c1ccc(Br)cc1)C12CC3CC(CC(C3)C1)C2
inactive: [1] 9.53 µM | [2] 11.6 µM | [3] 9.38 µM | [4] 16.3 µM | [5] 8.73 µM | [6] 14.9 µM | [7] > 20.2 µM | [8] 9.68 µM | [9] 32.4 µM | [10] > 21.3 µM | [11] 10.4 µM | [13] 7.6 µM | [14] 12.7 µM | [15] > 39.1 µM | [16] 4.48 µM | [17] 31.5 µM | [18] 13.8 µM | [19] 31.1 µM | [20] 13.6 µM | [21] 7.31 µM | [22] 10.5 µM | [23] 11.6 µM | [24] 11.1 µM | [25] 14.4 µM | [26] 13.9 µM | [27] > 49.8 µM | [28] 8.45 µM | [29] 3.74 µM | [30] 10.8 µM | [31] 24.9 µM | [32] 9.25 µM | [33] 19.3 µM | [34] 39.4 µM | [35] 42.8 µM | [36] 6.58 µM | [37] 14.3 µM | [38] 52.7 µM | [39] 11.6 µM | [40] 13 µM | [41] 8.91 µM | [42] 24.7 µM | [43] 16.3 µM | [44] 23.6 µM | [45] 28.4 µM | [46] 17.9 µM | [47] 19.2 µM | [48] 2.93 µM | [49] 34.8 µM | [50] 6.56 µM | [51] 14 µM | [52] 7.18 µM | [53] 9.59 µM | [54] 7.82 µM | [55] 23.7 µM
13.6 µM: [12]

O=C1N=C(SC2OC(CO)C(O)C(O)C2O)S/C1=C\c1ccccc1 (configuration not stated)
> 100 µM: [12]
inactive: [1] > 100 µM | [2] > 100 µM | [3] > 100 µM | [4] > 100 µM | [5] > 100 µM | [6] > 100 µM | [56] > 100 µM | [8] > 100 µM | [10] > 100 µM | [57] > 100 µM | [13] > 100 µM | [14] > 100 µM | [15] > 100 µM | [16] > 100 µM | [17] > 100 µM | [18] > 100 µM | [19] > 100 µM | [20] > 100 µM | [21] > 100 µM | [22] > 100 µM | [23] > 100 µM | [24] > 100 µM | [25] > 100 µM | [26] > 100 µM | [27] > 100 µM | [28] > 100 µM | [29] > 100 µM | [30] > 100 µM | [31] > 100 µM | [32] > 100 µM | [34] > 100 µM | [35] > 100 µM | [36] > 100 µM | [37] > 100 µM | [38] 25.6 µM | [39] > 100 µM | [40] > 100 µM | [41] > 100 µM | [42] > 100 µM | [43] > 100 µM | [44] > 100 µM | [45] > 100 µM | [46] > 100 µM | [47] > 100 µM | [48] > 100 µM | [49] > 100 µM | [58] > 100 µM | [50] > 100 µM | [51] > 100 µM | [53] > 100 µM | [54] > 100 µM | [55] > 100 µM

OCC1OC(c2n[nH]c3c(O)ncnc23)C(O)C1O (configuration not stated)
inactive: [1] 9.4 µM | [2] 30.1 µM | [4] 4.01 µM | [5] 56.8 µM | [6] 6.81 µM | [56] 7.38 µM | [7] 13.9 µM | [8] 1.48 µM | [9] 28 µM | [10] 18.7 µM | [11] 7.28 µM | [57] 3.02 µM | [13] 9.79 µM | [14] 11.9 µM | [15] 33.8 µM | [16] 18.4 µM | [17] 7.48 µM | [18] 16.7 µM | [19] 3.92 µM | [20] 5.48 µM | [21] 28.7 µM | [22] 3.66 µM | [23] 34.4 µM | [24] 31.7 µM | [25] 5.37 µM | [26] 16.1 µM | [27] 44.9 µM | [28] 32.4 µM | [29] 10.6 µM | [30] 10.2 µM | [31] 4.22 µM | [32] 9.18 µM | [33] 7.89 µM | [34] 18.9 µM | [35] 4.11 µM | [36] 6.68 µM | [37] 21.9 µM | [38] 58.6 µM | [40] 33.1 µM | [41] 26 µM | [42] 50 µM | [44] 21.5 µM | [45] 2.89 µM | [46] 10.3 µM | [47] 31 µM | [48] > 100 µM | [49] 27.7 µM | [58] 4.17 µM | [50] 4.72 µM | [52] 47.9 µM | [53] > 100 µM | [54] 31.6 µM | [55] 8.79 µM
6.03 µM: [12]
